Data as given in paper PMC7006816, “Human β-Defensin 2 Mediated Immune Modulation as Treatment for Experimental Colitis” (Frontiers in Immunology, 2020).
Where no end group is shown, it is not given here.

Experiments:
[1] = system: C57BL/6 mice with DSS colitis; assay: DSS colitis model; assay type: in vivo, mouse; settings: 0.1 mg/kg s.c. once a day
Experimental: The DSS colitis study was performed by Farma-Cros Ibérica according to directive 86/609 EEC and approved by Novozymes science ethics committee. 7–8 weeks old male C57BL/6 mice were used (Charles River) and each group consisted of 10 animals. Animal allocation to all experimental groups was done in a randomized manner. Colitis was induced by supplementing the drinking water with 2% dextran sodium sulfate (DSS, 30–50 kDA, MP Biomedicals) for 7 days. On day 1 all mice were weighed and the drinking bottle was filled with the DSS solution, this solution was replaced on day 3 and 5. On day 8 the remaining solution was discarded and replaced with autoclaved water. Mice were divided into 3 groups. One group received PBS as sham treatment intravenously. One group received on day 1, 4, and 8, 300 μg/mouse of a mouse anti-TNF-α antibody (αTNF, Ramcon) intraperitoneally. The animals in the other group were dosed s.c. with 0.1 mg/kg hBD2 once a day, starting at day 1 until day 10. Animals were euthenized on day 10. Daily clinical assessment was carried out to calculate a validated clinical disease activity index (DAI) ranging from 0 to 4 according to the following parameters: body weight loss, presence or absence of rectal bleeding, stool consistency. One mouse in the DSS control group had to be euthanized before the end of the study.
(§1) Sections of the colon were taken from each animal and preserved in neutral buffered formaline for subsequent histological analysis. Sections were stained using haematoxylin and eosin for further scoring.

human primary PBMC's = assay: Stimulation of PBMCs of healthy volunteers with TLR ligands, cytokine release; assay type: cell-based; settings: hBD2 100, 40, 10 or 1 μg/ml, 24 h, cytometric bead array
Experimental: Heparinized blood was diluted 1/1 v/v with RPMI (Gibco) and was subjected to Ficoll-Paque Plus (GE healthcare) density centrifugation within 2 h of drawing. Plasma was collected from the top from individual donors and was kept on ice until it was used at 2% in the culture medium (autologous culture medium). Isolated PBMC's were re-suspended in autologous culture medium and seeded in 96-well culture plates with 115.500 cells per well (Figure 1) or 200.000 cells per well (Figure 2) in a total of 200 μl. […] The supernatants were collected after incubation at 37°C for 24 h, and stored at −80°C until cytokine measurement.
The experiment in Figure 1 was performed with healthy volunteers, which were recruited under an approval from the Ethical Committee for Region Capital, Denmark. Interleukin 1β (IL-1β) and tumor necrosis factor alpha (TNF-α) (Figure 1) were quantified in supernatants by flow cytometry using a human inflammation cytometric bead array (CBA) according to manufacturer's instructions (BD) using a FACSarray flow cytometer. IL-1β, TNF- α, Interferon gamma (INF-y), Interleukin 12p70 (IL-12), and Interleukin 23 (IL-23) were analyzed using a human inflammation cytometric bead array (LegendPlex Biolegends) according to manufacturer's instructions.

[2] = system: human primary PBMC's of ulcerative colitis patients; assay: Stimulation of PBMCs of ulcerative colitis patients with LPS, cytokine release; assay type: cell-based; settings: LPS 20 pg/ml; 10 μg/mL hBD2; colitis patients n = 4; LegendPlex
Experimental: Heparinized blood was diluted 1/1 v/v with RPMI (Gibco) and was subjected to Ficoll-Paque Plus (GE healthcare) density centrifugation within 2 h of drawing. Plasma was collected from the top from individual donors and was kept on ice until it was used at 2% in the culture medium (autologous culture medium). Isolated PBMC's were re-suspended in autologous culture medium and seeded in 96-well culture plates with 115.500 cells per well (Figure 1) or 200.000 cells per well (Figure 2) in a total of 200 μl. PBMC's from the same donor were stimulated with 100, 10 or 1 μg/ml of hBD2 either alone or together with 20 pg/ml lipopolysaccharide (LPS) (E. coli, O111:B4, Sigma L4391) or with 0.3 μg/ml Pam3CSK4 (InvivoGen). The supernatants were collected after incubation at 37°C for 24 h, and stored at −80°C until cytokine measurement.
The experiment in Figure 2 was performed with 8 subjects (4 controls and 4 colitis patients) to study the impact of disease status on treatment efficacy. Clinical status of these subjects were subtotal remission (Simponi and Salofalk), remission (Vedolizumab), mild disease (Infliximab, Salofalk, and Prednisolon), and moderate disease (Vedolizumab). PBMCs from these subjects were analyzed for IL-1b, TNF-a, IFN-g, IL-12, and IL-23 expression using a human inflammation cytometric bead array (LegendPlex Biolegends) according to manufacturer's instructions.

[3] = system: human mesenchymal stem cells, osteoblasts, keratinocytes, and HeLa cells; settings: cited from earlier work
Source text: (§2) Herein we report that hBD2 can be used as a systemically administered anti-inflammatory biological. hBD2 is well-tolerated, both in vitro, and in vivo. […] After su ...

[4] = system: intestinal epithelial cells; settings: cited from earlier work
Source text: as §2

[5] = system: BALB/cByJ mice with TNBS colitis; assay: TNBS colitis model; assay type: in vivo, mouse; settings: hBD2 0.1 mg/kg s.c. once a day
Experimental: The TNBS colitis study was performed by Farma-Cros Ibérica according to directive 86/609 EEC and approved by Novozymes science ethics committee. Male BALB/cByJ mice were used (Janvier) and each group consisted of 15 animals. Animal allocation to all experimental groups was done in a randomized manner. Colitis was induced on day 0 by intracolonic (distal) administration of trinitrobenzene sulfonic acid (TNBS), 1 mg/mouse in 50% ethanol under mild anesthesia (ketamine/xylazine). Treatment of the animals started on day 0 after induction of colitis. All compounds were applied s.c. Mice received PBS (TNBS control), Prednisolone (10 mg/kg), or hBD2 0.1 mg/kg), respectively. In the TNBS control group as well as in the Prednisolone group, 2 animals had to be sacrificed before the end of the experiment. All other animals were sacrificed on day 10. Daily clinical assessment was carried out to calculate a validated clinical DAI ranging from 0 to 4 according to the following parameters: body weight loss, presence or absence of rectal bleeding, stool consistency.
as §1

## human β-defensin 2 (GIGDPVTCLKSGAICHPVFCPRRYKQIGTCGLPGTKCCKKP; not fully specified; ends and bridges not checked) [hBD2, Recombinant human β-defensin 2 expressed in E. coli as his-tagged thioredoxin fusion, cleaved and purified, natural tertiary structure]
[1]; day 1-10, 2% DSS 7 days, n = 10
  Outcome of DSS colitis: significant improvement of colitis
[1]; 2% DSS
  Therapeutic effect compared with anti-TNF-α antibody (300 μg/mouse i.p. day 1, 4, 8): superior to anti-TNF-α treatment
[1]; 2% DSS, end of experiment, n = 10
  Histology score of the colon (mucosal damage): significantly reduced mucosal damage
[1]; 2% DSS, n = 10
  DAI: improved the DAI
  Weight change: prevented excessive weight loss
Human primary PBMC's; LPS 20 pg/ml, n = 150–194
  Release of IL-1β: consistently mitigated release of both cytokines
  Release of TNF-α: consistently mitigated release of both cytokines
Human primary PBMC's; Pam3CSK4 0.3 μg/ml
  Release of IL-1β: significantly reduced
  Release of TNF-α: significantly reduced
[2]
  Proinflammatory immune response (IL-1β, TNF-α, INF-γ, IL-23, IL-12p70 release): successfully attenuated the proinflammatory immune response
[3]
  Cytotoxic effects: without observing cytotoxic effects
[4]
  Tolerability: well-tolerated by intestinal epithelial cells
[5]; TNBS
  Microscopic analysis of the colon (mucosa): nearly normal mucosa
[5]; TNBS 1 mg/mouse, n = 15
  Weight change: trended toward increased weight gain from day 1–7
[5]; TNBS, n = 15
  Colon weight: significantly reduced colon weight
  Macroscopic score of colon: significantly improved
  Microscopic score of colon: significantly improved
